Test results reported in ChEMBL document CHEMBL5131403, “Synthesis and structure-activity relationship studies of 1,5-isomers of triazole-pyrrolopyrimidine as selective Janus kinase 1 (JAK1) inhibitors” (Bioorg Med Chem Lett, 2022).

Tests used:
[1] = molecular target: T1, Tyrosine-protein kinase JAK1 (Homo sapiens, UniProt P23458); assay: Inhibition of JAK1 (unknown origin) at 1 uM by biochemical assay relative to control
[2] = molecular target: T2, Tyrosine-protein kinase JAK2 (Homo sapiens, UniProt O60674); assay: Inhibition of JAK2 (unknown origin) at 1 uM by biochemical assay relative to control
[3] = molecular target: T3, Tyrosine-protein kinase JAK3 (Homo sapiens) (UniProt P52333); assay: Inhibition of JAK3 (unknown origin) at 1 uM by biochemical assay relative to control
T3 sequence (whole entry): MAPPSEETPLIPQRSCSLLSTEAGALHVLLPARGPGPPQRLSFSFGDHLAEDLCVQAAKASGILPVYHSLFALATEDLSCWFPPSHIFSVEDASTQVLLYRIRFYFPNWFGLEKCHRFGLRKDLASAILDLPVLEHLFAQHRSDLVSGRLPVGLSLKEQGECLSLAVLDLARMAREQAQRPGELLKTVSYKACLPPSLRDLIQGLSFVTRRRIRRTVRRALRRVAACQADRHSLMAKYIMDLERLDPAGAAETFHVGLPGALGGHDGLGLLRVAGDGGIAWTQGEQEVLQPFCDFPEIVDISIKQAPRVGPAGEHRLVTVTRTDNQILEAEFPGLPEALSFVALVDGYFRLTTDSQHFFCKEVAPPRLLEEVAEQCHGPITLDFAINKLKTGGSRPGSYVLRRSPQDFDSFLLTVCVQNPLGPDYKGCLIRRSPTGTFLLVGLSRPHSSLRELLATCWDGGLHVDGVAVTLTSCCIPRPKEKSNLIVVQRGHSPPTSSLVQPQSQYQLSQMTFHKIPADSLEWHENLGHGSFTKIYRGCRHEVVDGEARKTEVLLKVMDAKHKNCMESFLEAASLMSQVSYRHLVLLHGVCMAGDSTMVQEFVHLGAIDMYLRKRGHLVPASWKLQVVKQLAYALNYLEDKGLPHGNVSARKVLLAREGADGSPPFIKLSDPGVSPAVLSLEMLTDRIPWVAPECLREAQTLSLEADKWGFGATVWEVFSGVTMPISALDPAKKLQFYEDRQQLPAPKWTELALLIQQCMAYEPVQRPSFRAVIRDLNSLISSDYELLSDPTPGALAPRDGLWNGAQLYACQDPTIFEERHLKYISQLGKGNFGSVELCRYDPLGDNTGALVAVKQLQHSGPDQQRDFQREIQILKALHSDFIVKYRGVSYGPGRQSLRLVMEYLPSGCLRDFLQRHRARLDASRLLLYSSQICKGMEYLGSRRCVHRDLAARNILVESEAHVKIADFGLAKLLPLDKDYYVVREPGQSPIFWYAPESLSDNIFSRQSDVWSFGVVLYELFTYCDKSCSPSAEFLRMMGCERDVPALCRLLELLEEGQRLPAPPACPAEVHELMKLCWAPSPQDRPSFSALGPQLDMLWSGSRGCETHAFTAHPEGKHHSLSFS

[4] = molecular target: T1, Tyrosine-protein kinase JAK1; assay: Inhibition of JAK1 (unknown origin) by biochemical assay
[5] = molecular target: T2, Tyrosine-protein kinase JAK2; assay: Inhibition of JAK2 (unknown origin) by biochemical assay
[6] = molecular target: Non-receptor tyrosine-protein kinase TYK2 (Homo sapiens) (UniProt P29597); assay: Inhibition of TYK2 (unknown origin) at 1 uM by biochemical assay relative to control
Homo sapiens [7] = species on record: Homo sapiens; assay: Selectivity index, ratio of inhibition of JAK1 (unknown origin) to inhibition of JAK2 (unknown origin)
Homo sapiens [8] = species on record: Homo sapiens; assay: Selectivity index, ratio of inhibition of JAK1 (unknown origin) to inhibition of JAK3 (unknown origin)
Homo sapiens [9] = species on record: Homo sapiens; assay: Selectivity index, ratio of IC50 for inhibition of JAK2 (unknown origin) to IC50 for inhibition of JAK1 (unknown origin)

T2 sequence (O60674 whole entry): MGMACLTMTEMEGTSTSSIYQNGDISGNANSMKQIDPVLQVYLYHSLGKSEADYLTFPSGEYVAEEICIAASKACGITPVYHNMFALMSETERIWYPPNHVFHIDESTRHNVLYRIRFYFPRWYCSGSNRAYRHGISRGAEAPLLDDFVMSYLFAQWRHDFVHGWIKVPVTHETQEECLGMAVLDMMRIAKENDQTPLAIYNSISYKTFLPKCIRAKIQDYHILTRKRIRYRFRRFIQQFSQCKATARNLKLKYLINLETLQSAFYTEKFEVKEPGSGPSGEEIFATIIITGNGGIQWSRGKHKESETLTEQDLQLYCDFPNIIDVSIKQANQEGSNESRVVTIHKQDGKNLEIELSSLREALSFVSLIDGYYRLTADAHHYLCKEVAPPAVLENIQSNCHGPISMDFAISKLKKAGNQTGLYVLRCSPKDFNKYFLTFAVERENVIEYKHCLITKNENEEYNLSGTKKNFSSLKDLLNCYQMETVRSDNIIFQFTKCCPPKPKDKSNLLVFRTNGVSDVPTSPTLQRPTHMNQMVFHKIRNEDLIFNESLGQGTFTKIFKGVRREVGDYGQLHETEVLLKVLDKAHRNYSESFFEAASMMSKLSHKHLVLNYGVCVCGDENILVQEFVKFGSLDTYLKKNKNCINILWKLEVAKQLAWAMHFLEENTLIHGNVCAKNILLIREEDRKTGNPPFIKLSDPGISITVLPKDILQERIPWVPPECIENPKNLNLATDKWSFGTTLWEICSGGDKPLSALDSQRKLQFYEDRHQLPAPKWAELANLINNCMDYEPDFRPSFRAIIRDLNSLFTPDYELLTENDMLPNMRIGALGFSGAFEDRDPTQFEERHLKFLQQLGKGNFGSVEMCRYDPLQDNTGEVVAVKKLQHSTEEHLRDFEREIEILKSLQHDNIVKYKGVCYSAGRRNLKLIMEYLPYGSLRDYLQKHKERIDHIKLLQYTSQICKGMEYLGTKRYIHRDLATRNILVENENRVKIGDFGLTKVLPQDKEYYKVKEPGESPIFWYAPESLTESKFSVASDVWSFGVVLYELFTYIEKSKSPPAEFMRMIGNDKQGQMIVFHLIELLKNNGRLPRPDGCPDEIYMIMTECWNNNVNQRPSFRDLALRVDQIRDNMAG
Chain of Non-receptor tyrosine-protein kinase TYK2 (Homo sapiens) (P29597 whole entry): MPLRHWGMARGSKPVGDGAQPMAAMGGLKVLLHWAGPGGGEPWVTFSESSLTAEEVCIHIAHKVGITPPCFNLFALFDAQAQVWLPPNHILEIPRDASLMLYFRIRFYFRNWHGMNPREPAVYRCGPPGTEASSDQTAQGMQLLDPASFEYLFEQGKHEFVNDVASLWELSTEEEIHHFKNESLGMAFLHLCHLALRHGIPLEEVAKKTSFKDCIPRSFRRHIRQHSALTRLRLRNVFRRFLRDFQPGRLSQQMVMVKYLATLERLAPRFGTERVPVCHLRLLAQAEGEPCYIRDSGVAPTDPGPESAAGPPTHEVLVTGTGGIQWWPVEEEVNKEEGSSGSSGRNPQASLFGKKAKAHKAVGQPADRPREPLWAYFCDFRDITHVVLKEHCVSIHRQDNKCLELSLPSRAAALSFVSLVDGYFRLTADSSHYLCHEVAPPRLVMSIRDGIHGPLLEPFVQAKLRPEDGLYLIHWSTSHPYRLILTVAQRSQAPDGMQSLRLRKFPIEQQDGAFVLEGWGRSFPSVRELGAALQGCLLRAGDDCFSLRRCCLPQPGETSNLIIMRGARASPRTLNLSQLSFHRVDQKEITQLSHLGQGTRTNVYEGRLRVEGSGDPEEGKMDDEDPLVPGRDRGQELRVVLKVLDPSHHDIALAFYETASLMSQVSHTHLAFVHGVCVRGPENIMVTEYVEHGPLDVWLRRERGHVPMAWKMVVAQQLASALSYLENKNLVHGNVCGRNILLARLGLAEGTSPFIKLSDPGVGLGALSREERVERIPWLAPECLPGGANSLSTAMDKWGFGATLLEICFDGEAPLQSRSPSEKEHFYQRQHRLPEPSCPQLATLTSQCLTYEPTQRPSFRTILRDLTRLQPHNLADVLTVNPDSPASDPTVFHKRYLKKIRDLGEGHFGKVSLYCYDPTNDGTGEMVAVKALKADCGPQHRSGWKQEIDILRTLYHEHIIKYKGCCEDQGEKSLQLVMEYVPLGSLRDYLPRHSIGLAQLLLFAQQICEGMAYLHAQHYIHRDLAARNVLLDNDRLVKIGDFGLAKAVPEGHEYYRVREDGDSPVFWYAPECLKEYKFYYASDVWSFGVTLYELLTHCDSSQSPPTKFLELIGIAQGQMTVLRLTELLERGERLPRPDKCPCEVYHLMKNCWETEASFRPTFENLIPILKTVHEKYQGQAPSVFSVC
T1 sequence (P23458 whole entry): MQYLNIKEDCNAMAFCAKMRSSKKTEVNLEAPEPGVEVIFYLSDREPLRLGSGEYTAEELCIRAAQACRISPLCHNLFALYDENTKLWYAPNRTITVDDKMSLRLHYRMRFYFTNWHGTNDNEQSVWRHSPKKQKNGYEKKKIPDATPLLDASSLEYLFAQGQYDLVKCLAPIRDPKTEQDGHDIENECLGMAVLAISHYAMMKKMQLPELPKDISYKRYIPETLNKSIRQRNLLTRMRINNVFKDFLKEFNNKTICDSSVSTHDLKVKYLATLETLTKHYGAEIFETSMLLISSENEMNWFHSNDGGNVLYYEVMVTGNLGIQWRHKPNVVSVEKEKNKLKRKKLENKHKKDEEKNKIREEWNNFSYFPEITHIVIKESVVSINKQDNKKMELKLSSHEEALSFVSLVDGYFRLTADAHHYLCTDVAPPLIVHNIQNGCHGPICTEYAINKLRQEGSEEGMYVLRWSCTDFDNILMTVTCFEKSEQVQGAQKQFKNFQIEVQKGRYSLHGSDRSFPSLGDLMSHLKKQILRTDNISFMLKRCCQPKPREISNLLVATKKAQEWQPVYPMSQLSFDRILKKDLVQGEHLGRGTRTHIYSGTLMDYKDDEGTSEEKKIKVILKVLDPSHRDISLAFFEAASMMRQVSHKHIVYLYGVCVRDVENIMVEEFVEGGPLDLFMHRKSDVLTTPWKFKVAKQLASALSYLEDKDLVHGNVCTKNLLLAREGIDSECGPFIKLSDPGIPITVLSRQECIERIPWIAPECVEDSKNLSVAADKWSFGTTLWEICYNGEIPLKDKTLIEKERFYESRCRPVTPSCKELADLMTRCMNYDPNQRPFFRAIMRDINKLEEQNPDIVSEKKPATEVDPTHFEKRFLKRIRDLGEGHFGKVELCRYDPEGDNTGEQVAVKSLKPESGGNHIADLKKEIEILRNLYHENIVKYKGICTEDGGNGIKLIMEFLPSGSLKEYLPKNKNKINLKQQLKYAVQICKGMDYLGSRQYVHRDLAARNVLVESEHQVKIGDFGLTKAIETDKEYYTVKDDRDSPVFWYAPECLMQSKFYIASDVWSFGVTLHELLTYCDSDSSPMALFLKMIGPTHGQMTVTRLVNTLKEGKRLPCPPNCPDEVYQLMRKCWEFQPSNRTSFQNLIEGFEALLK

SMILES	inhibition [1]	inhibition [2]	inhibition [3]	IC50 [4]	IC50 [5]	inhibition [6]	Selectivity Index (Homo sapiens [7])	Selectivity Index (Homo sapiens [8])	Ratio IC50 (Homo sapiens [9])
Cc1c(-c2ncnc3[nH]ccc23)nnn1CCc1ccc(C(F)(F)F)cc1	32.7%	8.7%	35%	–	–	–	–	–	–
Cc1c(-c2ncnc3[nH]ccc23)nnn1Cc1ccc(OC(F)(F)F)cc1	69.5%	13%	-3.7%	–	–	–	–	–	–
Cc1c(-c2ncnc3[nH]ccc23)nnn1Cc1ccc(S(C)(=O)=O)cc1	76.6%	8%	20.6%	386 nM	> 10000 nM	2.7%	–	–	–
Cc1ccc(CCn2nnc(-c3ncnc4[nH]ccc34)c2C)cc1	12.3%	–	4%	–	–	–	–	–	–
Cc1c(-c2ncnc3[nH]ccc23)nnn1Cc1ccc(F)cc1	75%	39%	14%	–	–	–	–	–	–
Cc1c(-c2ncnc3[nH]ccc23)nnn1Cc1cccc(OC(F)(F)F)c1	19.3%	–	0%	–	–	–	–	–	–
Cc1c(-c2ncnc3[nH]ccc23)nnn1CCCc1ccccc1	48%	10.7%	11.3%	–	–	–	5	12.3	–
Cc1c(-c2ncnc3[nH]ccc23)nnn1Cc1ccc(C(F)(F)F)cc1	86.7%	32.7%	-8.7%	–	–	–	–	–	–
Cc1c(-c2ncnc3[nH]ccc23)nnn1Cc1ccc(Br)cc1	94%	49.3%	30%	97 nM	784 nM	61.6%	–	–	8
COc1ccc(Cn2nnc(-c3ncnc4[nH]ccc34)c2C)cc1	51%	3%	5%	–	–	–	17	10.2	–
Cc1c(-c2ncnc3[nH]ccc23)nnn1CCc1ccccc1	12.5%	18.7%	13.3%	–	–	–	–	–	–
Cc1c(-c2ncnc3[nH]ccc23)nnn1CCc1ccc(OC(F)(F)F)cc1	17.3%	3.7%	20.3%	–	–	–	–	–	–
Cc1ccc(Cn2nnc(-c3ncnc4[nH]ccc34)c2C)cc1	74%	10%	6%	–	–	–	7.4	12.3	–
Cc1c(-c2ncnc3[nH]ccc23)nnn1CCc1ccc(I)cc1	54.7%	19.7%	–	–	–	–	–	–	–
Cc1c(-c2ncnc3[nH]ccc23)nnn1Cc1ccccc1	28%	14%	-9%	–	–	–	–	–	–
Cc1c(-c2ncnc3[nH]ccc23)nnn1Cc1ccc(Cl)cc1	92%	50%	36%	107 nM	959 nM	67%	–	–	9
Cc1c(-c2ncnc3[nH]ccc23)nnn1CCCc1ccc(I)cc1	61.7%	49.7%	52%	–	–	–	–	–	–
Cc1c(-c2ncnc3[nH]ccc23)nnn1Cc1ccc(C#N)cc1	69.3%	15%	7.3%	–	–	–	–	–	–
Cc1c(-c2ncnc3[nH]ccc23)nnn1Cc1ccc(C(C)(C)C)cc1	21.6%	15%	3%	–	–	–	–	–	–
Cc1c(-c2ncnc3[nH]ccc23)nnn1Cc1ccccc1OC(F)(F)F	21.6%	11.6%	20.3%	–	–	–	–	–	–
Cc1c(-c2ncnc3[nH]ccc23)nnn1Cc1ccc(I)cc1	94%	54%	20.3%	72 nM	839 nM	41.3%	–	–	12
